Results: ChEMBL document CHEMBL1201862, “PubChem BioAssay data set” (2004)
Activity calls are given as the source filed them.

What was measured:
[1] = microbe, parasite or virus in culture; assay type: functional; conditions: Mycobacterium tuberculosis
[2] = growth suppression of beta-catenin-knockout colon cells, dose response, cell-based, HCT116, human colon tumor (AID 1045); assay type: functional;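 note: HCT116 colon tumor cells with beta catenin knocked out; cells exposed to compound for 60 hours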
[3] = non-specific cell cytotoxicity, dose response, cytotoxicity control for PAX8 inhibitor project, plate reader, dry powder samples (AID 743021); assay type: functional, cell-based
HeLa = experiment: Cytotoxicity counterscreen assay for transcriptional activators of heat shock protein 70 (Hsp70). [Related pubchem assays: 1203, 1252 ]; assay type: functional; conditions: Homo sapiens;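 note: cells exposed to compound for 16 hours before readout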
INS1 = experiment: beta cell apoptosis inhibitors, cytokine rescue, dose response, luminescence, retest (AID 449756); assay type: functional, cell-based; conditions: Rattus norvegicus;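 note: cell death triggered by IL-1 beta plus TNF-alpha plus IFN-gamma mixture; protective hits raise ATP signal compared with cytokine alone wells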
[4] = growth suppression of PTEN-null colon cells, dose response, cell-based, HCT116 PTEN knockout (AID 1047); assay type: functional;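 note: HCT116 colon tumor cells with PTEN knocked out; cells exposed to compound for 60 hours before readout; potency for loss of cell viability measured by luminescence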
[5] = Vero E6 cell cytotoxicity, dose response, cytotoxicity control for non-replicating M. tuberculosis project, secondary assay (AID 492998); assay type: functional, VeroE6; conditions: Vero C1008
cells [6] = assay type: functional
[7] = biological target: Photoreceptor-specific nuclear receptor (Homo sapiens, UniProt Q9Y5X4); assay type: functional, cell-based;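 note: CHO-S cells with Gal4-NCOR and VP16-NR2E3 two-hybrid luciferase reporter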
[8] = Fluorescence-based cell-based high throughput dose response assay for inhibitors of the interaction of nucleotide-binding oligomerization domain containing 2 (NOD2) and the receptor-interacting serine-threonine kinase 2 (RIPK2).; assay type: functional; conditions: Homo sapiens
Paired box protein Pax-8 = Paired box protein Pax-8 (Homo sapiens, UniProt Q06710); experiment: inhibitors of PAX8-driven TPO luciferase reporter, dose response, RMG-I cells, cherry-pick (AID 687027); assay type: functional, cell-based;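 note: luciferase reporter driven by Pax8 target thyroperoxidase promoter measured by SteadyGlo luminescence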
Beta Lactamase = Beta Lactamase (Pseudomonas aeruginosa, UniProt Q932Y6); experiment: beta-lactamase reporter inhibitor potency, dose response, artefact control for TLR9-MyD88 binding inhibitor project, BLA reporter cells, FRET fluorescence (AID 588341); assay type: cell-based;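 note: cell based assay in CHO-K1 cells stably expressing beta-lactamase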
[9] = THP-1 cell cytotoxicity, dose response, cytotoxicity control for non-replicating M. tuberculosis project (AID 489025); assay type: functional
CHO = experiment: cytotoxicity in TLR9-MyD88 CHO cells, dose response, cytotoxicity control for TLR9-MyD88 binding inhibitor project, cell-based, luminescence (AID 588339); assay type: functional, hamster; conditions: Cricetulus griseus;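 note: CHO cells stably coexpressing TLR9 and MyD88 fusions from primary screen; compound exposure lasted 48 hours before viability readout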
Bcl-2-like protein 10 = Bcl-2-like protein 10 (Homo sapiens, UniProt Q9HD36); experiment: Biochemical TR3 FP assay of Bcl-B inhibitor potency, EC50 (AID 1243); assay type: functional
BJ [10] = experiment: cytotoxicity toward BJ-TERT-LT-ST fibroblasts, dose response, cell-based, RAS-independent, luminescence (AID 1935); assay type: functional; conditions: Homo sapiens;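 note: BJ fibroblasts immortalized with TERT plus LT and ST oncogenes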
[11] = Luminescence-based dose response cell-based high throughput screening assay for cytotoxic compounds using the IEC-6 intestinal epithelial cell line. [Related pubchem assays: 1858 (Summary AID.), 1825 (Counterscreen.), 1907 (Confirmation screen.)]; assay type: functional
[12] = inhibitors of firefly luciferase expression or activity, dose response, H4 neuroglioma cells, luminescence (AID 1990); assay type: functional, cell-based
HEK293 = experiment: inhibitors of LMP1-driven NF-kB reporter, dose response, cell-based, HEK293, luciferase, cherry-pick (AID 588343); assay type: functional; conditions: Homo sapiens
BJ [13] = experiment: cytotoxicity toward BJ-TERT fibroblasts, dose response, cell-based, RAS-independent, luminescence (AID 1933); assay type: functional; conditions: Homo sapiens
[14] = Luminescence Cell-Based Dose Response HTS to Identify Inhibitors of 5'UTR Stem-Loop Driven Prion Protein mRNA Translation in H4 Neuroglioblastoma Cells. [Related pubchem assays: 1827 (Project Summary), 1813 (Primary HTS)]; assay type: functional
BJ [15] = experiment: cytotoxicity toward Ras-transformed BJeLR fibroblasts, dose response, cell-based, alamar blue fluorescence, cherrypicked samples (AID 2631); assay type: functional; conditions: Homo sapiens;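 note: confirmatory dose-response assay in RAS-dependent BJ fibroblasts engineered with TERT, LT and ST, with cytotoxicity read by fluorescence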
Aminopeptidase N = biological target: T1, Aminopeptidase N (Plasmodium falciparum FcB1/Columbia, UniProt O96935); experiment: P. falciparum M1AAP inhibitors, biochemical, fluorogenic H-Leu-NHMec substrate, 1536-well (AID 1445); design: species or system Plasmodium falciparum 3D7, 3D7
T1 sequence (O96935 whole entry): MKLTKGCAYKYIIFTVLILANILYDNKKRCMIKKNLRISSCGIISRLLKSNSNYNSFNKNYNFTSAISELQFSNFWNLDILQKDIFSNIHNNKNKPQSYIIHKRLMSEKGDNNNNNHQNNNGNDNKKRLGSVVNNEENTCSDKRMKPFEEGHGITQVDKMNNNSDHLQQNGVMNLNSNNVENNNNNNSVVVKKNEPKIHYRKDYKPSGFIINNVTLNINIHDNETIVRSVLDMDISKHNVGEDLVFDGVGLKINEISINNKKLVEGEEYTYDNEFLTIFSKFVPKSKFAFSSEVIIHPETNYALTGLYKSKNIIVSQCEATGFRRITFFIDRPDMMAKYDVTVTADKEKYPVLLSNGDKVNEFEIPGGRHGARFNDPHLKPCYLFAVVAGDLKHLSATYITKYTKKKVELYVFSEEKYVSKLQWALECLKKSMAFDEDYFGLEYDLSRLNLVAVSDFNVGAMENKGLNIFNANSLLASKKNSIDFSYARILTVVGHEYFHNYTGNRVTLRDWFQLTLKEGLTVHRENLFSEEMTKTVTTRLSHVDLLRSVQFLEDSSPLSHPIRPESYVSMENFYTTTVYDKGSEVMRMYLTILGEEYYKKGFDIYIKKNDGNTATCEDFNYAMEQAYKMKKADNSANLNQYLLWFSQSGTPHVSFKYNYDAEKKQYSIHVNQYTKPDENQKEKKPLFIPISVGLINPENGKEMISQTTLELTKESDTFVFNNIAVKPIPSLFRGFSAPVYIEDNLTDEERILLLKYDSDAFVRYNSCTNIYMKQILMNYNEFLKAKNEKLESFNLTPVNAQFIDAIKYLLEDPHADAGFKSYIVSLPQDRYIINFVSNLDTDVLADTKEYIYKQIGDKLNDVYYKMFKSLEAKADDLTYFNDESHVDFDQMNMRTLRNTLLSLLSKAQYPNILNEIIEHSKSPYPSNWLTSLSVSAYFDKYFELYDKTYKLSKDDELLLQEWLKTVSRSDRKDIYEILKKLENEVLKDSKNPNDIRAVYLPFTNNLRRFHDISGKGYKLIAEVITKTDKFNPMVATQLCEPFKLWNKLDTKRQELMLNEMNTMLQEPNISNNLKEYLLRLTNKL

[16] = inhibitors of SNCA 5'UTR-driven reporter translation, confirmation, H4 neuroglioma cells, luminescence (AID 1988); assay type: functional, cell-based
BJ [17] = experiment: cells; assay type: functional, cell-based; conditions: Homo sapiens
[18] = inhibitors of SNCA 5'UTR-driven translation, confirmation, luminescence, H4 neuroglioblastoma cells, dose confirmation (AID 2454); assay type: functional, cell-based;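 note: H4 neuroglioblastoma cells carrying an alpha-synuclein 5'UTR luciferase reporter; potency for inhibition of the luciferase signal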
[19] = luciferase reporter signal reduction – luminescence, H4-C neuroglioblastoma cells, dose response (AID 2458); assay type: functional, cell-based;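 note: H4 neuroglioblastoma cells stably carrying a luciferase reporter gene fusion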
cells [20] = assay type: functional, cell-based
Wee1-like protein kinase = Wee1-like protein kinase (Homo sapiens, UniProt P30291); experiment: Dose Response Cell-based Assay for Inhibitors of Wee1 Degradation. [Related pubchem assays: 1410, 1321 ]; assay type: functional
[21] = biological target: G2/mitotic-specific cyclin-B1 (Homo sapiens, UniProt P14635); experiment: Counterscreen assay for inhibitors of Wee1 degradation: dose response cell-based assay to identify inhibitors of cyclin B degradation. [Related pubchem assays: 1410, 1321 ]; assay type: functional
Mucolipin-3 = Mucolipin-3 (Homo sapiens, UniProt Q8TDD5); experiment: Dose response cell-based high-throughput screening assay for agonists of the transient receptor potential channel ML3 (TRPML3). [Related pubchem assays: 1526, 1424, 1448 ]; assay type: functional
Ion channel NompC = Ion channel NompC (Danio rerio, UniProt Q7T1G6); experiment: Fluorescence counterscreen assay for TRPML3 agonists: dose response cell-based high-throughput screening assay to identify agonists of the transient receptor potential channel N1 (TRPN1). [Related pubchem assays: 1526, 1424, 1448 ]; assay type: functional
Sequence of Ion channel NompC (Q7T1G6 whole entry): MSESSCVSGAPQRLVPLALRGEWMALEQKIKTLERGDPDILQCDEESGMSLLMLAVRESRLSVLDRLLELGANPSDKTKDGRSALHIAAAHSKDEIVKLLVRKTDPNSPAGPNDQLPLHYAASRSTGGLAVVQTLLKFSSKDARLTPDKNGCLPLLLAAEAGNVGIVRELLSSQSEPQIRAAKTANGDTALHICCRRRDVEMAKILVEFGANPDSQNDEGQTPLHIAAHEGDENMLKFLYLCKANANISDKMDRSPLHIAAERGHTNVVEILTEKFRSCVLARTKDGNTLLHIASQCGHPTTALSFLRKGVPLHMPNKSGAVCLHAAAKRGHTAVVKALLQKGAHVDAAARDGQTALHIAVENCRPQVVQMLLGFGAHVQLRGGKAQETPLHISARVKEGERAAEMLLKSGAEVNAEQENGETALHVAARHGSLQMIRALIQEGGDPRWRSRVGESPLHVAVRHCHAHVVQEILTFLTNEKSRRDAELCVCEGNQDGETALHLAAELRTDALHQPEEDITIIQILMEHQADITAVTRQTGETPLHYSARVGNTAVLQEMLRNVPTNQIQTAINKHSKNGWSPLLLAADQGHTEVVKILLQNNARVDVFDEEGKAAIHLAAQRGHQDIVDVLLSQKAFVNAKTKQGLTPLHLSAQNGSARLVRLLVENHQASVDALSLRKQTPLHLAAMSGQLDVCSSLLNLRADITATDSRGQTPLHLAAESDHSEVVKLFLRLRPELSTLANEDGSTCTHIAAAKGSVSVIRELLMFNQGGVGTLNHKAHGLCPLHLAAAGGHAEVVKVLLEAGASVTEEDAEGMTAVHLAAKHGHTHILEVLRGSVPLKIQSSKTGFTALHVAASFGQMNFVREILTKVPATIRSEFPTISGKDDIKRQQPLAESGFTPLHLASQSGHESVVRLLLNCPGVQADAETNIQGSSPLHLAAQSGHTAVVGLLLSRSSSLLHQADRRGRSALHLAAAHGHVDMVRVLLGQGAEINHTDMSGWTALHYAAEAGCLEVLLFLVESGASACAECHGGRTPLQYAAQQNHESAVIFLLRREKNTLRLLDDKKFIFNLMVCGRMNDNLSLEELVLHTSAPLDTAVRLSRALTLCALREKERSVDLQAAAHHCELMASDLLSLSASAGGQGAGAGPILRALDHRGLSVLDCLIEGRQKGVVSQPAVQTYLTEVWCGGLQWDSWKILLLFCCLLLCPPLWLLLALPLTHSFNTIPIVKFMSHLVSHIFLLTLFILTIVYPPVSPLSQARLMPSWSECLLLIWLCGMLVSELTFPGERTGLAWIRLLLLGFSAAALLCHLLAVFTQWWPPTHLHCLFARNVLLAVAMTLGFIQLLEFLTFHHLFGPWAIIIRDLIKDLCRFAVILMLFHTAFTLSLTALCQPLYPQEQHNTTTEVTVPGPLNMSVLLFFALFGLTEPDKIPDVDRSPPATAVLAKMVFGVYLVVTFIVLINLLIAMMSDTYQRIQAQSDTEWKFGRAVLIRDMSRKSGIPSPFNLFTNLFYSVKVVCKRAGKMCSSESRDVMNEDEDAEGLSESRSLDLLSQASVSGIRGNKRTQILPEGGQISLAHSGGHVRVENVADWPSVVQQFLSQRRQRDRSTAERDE

Sequence of Wee1-like protein kinase (P30291 whole entry): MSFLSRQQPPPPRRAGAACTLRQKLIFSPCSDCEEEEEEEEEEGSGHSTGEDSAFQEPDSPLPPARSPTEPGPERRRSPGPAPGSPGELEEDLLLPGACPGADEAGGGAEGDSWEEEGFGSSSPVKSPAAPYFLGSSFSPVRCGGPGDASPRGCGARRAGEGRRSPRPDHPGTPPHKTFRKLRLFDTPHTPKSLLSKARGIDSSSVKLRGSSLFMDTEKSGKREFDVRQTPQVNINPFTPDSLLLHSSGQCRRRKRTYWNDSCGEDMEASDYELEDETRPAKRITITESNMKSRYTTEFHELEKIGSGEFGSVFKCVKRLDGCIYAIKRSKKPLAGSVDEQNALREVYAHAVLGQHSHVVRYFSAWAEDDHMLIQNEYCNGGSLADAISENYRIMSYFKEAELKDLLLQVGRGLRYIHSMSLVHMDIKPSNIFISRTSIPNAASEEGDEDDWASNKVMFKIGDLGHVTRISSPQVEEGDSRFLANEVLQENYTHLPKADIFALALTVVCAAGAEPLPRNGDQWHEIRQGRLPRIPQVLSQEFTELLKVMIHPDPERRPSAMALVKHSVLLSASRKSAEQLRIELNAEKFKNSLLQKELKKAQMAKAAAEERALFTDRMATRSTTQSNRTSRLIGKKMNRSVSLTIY
Sequence of G2/mitotic-specific cyclin-B1 (P14635 whole entry): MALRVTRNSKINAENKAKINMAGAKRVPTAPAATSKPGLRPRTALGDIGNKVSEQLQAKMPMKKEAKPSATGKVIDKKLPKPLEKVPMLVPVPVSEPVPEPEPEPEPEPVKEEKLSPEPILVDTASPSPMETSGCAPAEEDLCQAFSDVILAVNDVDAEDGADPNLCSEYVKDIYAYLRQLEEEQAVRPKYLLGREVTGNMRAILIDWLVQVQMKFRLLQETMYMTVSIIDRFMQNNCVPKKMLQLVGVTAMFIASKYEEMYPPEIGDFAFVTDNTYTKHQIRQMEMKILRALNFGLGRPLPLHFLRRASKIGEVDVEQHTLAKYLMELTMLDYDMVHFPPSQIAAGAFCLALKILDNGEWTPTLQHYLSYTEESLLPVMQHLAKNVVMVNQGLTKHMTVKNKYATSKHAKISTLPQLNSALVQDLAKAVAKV
Sequence of Paired box protein Pax-8 (Q06710 whole entry): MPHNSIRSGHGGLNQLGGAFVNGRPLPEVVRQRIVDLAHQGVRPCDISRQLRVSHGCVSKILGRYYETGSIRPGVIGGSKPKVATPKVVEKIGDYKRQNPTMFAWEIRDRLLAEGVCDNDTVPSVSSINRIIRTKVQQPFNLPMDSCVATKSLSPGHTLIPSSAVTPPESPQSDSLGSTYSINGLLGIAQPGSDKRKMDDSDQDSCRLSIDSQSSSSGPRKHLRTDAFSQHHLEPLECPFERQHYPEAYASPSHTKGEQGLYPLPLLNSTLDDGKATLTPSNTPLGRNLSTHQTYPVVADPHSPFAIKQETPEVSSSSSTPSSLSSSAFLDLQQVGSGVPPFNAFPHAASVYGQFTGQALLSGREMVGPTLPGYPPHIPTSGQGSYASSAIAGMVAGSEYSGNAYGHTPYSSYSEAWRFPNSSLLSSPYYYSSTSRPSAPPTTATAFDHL
Sequence of Photoreceptor-specific nuclear receptor (Q9Y5X4 whole entry, the tested form may be a part): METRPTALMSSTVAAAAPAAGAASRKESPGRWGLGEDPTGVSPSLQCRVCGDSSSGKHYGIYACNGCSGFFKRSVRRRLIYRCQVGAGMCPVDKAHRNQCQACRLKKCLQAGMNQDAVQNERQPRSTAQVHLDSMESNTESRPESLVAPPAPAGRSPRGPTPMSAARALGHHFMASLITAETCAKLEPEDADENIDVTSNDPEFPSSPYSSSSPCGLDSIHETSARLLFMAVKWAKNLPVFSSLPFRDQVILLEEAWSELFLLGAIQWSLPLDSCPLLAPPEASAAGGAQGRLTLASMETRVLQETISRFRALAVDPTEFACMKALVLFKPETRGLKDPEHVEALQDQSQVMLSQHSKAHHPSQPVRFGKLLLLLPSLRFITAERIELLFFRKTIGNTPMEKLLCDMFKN
Sequence of Beta Lactamase (Q932Y6 whole entry): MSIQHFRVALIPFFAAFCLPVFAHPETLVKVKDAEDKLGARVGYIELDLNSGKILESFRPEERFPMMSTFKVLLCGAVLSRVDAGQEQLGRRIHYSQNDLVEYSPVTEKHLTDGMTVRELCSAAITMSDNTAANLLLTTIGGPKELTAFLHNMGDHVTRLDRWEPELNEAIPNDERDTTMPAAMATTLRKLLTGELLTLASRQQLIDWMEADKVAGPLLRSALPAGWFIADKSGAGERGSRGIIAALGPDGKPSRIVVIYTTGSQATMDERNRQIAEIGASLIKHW
Sequence of Bcl-2-like protein 10 (Q9HD36 whole entry): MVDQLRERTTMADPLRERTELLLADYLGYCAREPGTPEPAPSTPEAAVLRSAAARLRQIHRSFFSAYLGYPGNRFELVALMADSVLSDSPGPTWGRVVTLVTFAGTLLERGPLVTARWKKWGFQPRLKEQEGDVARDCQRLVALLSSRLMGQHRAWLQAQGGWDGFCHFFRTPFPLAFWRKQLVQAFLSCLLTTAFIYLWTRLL
Sequence of Mucolipin-3 (Q8TDD5 whole entry): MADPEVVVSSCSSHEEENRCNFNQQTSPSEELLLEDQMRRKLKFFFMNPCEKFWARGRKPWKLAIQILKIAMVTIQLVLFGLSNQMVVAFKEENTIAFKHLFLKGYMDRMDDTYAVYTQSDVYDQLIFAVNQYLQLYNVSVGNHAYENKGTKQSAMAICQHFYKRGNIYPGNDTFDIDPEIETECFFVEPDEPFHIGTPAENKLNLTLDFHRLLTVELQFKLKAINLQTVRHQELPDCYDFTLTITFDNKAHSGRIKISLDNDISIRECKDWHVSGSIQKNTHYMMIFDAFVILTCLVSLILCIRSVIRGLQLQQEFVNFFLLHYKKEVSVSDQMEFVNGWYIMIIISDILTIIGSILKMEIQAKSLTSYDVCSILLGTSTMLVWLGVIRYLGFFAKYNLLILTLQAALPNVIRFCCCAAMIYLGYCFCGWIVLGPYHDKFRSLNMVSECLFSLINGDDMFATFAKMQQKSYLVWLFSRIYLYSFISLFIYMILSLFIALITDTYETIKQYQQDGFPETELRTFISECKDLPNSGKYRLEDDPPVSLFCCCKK

COc1cc(OC)nc(-n2ncc(Br)c(Br)c2=O)n1
CC50 [1]: 1980 nM (active)
EC50 [2]: < 59 nM (active)
AC50 [3]: 20600 nM (active)
CC50 (HeLa): > 1220 nM (not active)
AC50 (INS1): 6030 nM (active)
EC50 [4]: < 59 nM (active)
CC50 [5]: 1360 nM (active)
IC50 (cells [6]): 6730 nM (active)
IC50 [7]: 2690 nM (active)
IC50 [8]: 1180 nM (active)
AC50 (Paired box protein Pax-8): 2660 nM (active)
IC50 (Beta Lactamase): > 49700 nM (inactive)
CC50 [9]: 402 nM (active)
IC50 (CHO): 546 nM (active)

Cc1ccc(C)n1-c1ccc(C(=O)O)c(Cl)c1
EC50 (Bcl-2-like protein 10): 9960 nM (active)

Cc1nc(N)nc(N)c1/C=C/C(C)(C)c1ccc(Cl)cc1
EC50 (BJ [10]): > 150000 nM (inconclusive)
IC50 [11]: > 2.02 nM (active)
EC50 [12]: < 100 nM (active)
AC50 (HEK293): 45.8 nM (active)
EC50 (BJ [13]): 15900 nM (active)
EC50 [14]: < 100 nM (active)
EC50 (BJ [15]): > 133000 nM (inactive)
IC50 (Aminopeptidase N): 66200 nM (active)
EC50 [16]: < 100 nM (active)
EC50 (BJ [17]): < 120 nM (active)
EC50 [18]: < 1 nM (active)
EC50 [19]: 9 nM (active)
EC50 (cells [20]): 12 nM (active)

COc1ccc(Nc2oc(-c3ccc(OC)cc3)nc2C#N)cc1
EC50 (Wee1-like protein kinase): > 49700 nM (not active)
EC50 [21]: > 49700 nM (not active)

COC(=O)c1cc(-c2ccc(S(=O)(=O)N3CCCCC3)cc2)c(C(F)(F)F)s1
EC50 (Mucolipin-3): > 29900 nM (not active)
EC50 (Ion channel NompC): > 29900 nM (not active)
